Test results as given in ChEMBL document CHEMBL1142814, “Synthesis and preliminary biological evaluation of new anti-tubulin agents containing different benzoheterocycles” (Bioorg Med Chem Lett, 2005).

How the values were obtained:
CCRF-CEM = assay: Concentration required to inhibit human T-lymphoblast CEM cell line proliferation; assay type: functional, cell-based
MOLT-4 = assay: Concentration required to inhibit human T-lymphoblast Molt4/C8 cell line proliferation; assay type: functional, cell-based
FM3A = assay: Concentration required to inhibit murine mammary carcinoma FM3A cell line proliferation; assay type: functional, cell-based; details: Mus musculus
L1210 = assay: Concentration required to inhibit murine leukemia L1210 cell line proliferation; assay type: functional, cell-based; details: Mus musculus
[1] = biological target: Tubulin beta chain (Bos taurus) (UniProt Q6B856); assay: Inhibition of 1 uM [3H]colchicine binding to tubulin at 5 uM
[2] = biological target: Tubulin beta chain (Bos taurus); assay: Concentration required to inhibit tubulin polymerization at 10 uM
[3] = biological target: Tubulin beta chain (Bos taurus) (UniProt Q6B856); assay: Inhibition of [3H]colchicine binding to 1 uM beta-tubulin at 2 uM

Sequence of Tubulin beta chain (Bos taurus) (UniProt Q6B856) (Q6B856 whole entry): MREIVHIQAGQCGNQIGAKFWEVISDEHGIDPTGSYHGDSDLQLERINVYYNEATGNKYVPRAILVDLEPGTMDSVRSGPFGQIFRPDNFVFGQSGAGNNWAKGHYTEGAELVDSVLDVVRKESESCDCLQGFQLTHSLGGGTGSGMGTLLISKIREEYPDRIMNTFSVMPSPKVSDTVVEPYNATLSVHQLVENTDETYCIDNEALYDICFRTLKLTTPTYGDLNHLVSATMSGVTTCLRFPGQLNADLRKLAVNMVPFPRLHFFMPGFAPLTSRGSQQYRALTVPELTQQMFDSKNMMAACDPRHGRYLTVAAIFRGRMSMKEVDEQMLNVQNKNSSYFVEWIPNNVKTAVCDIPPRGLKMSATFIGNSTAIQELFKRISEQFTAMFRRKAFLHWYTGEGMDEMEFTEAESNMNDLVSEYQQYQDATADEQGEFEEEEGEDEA

SMILES: COc1ccc(C(=O)c2c(N)sc3ccccc23)cc1
- IC50 (CCRF-CEM): > 10 µM
- IC50 (MOLT-4): 9.2 µM
- IC50 (FM3A): > 10 µM
- IC50 (L1210): > 10 µM

SMILES: COc1cc(C(=O)c2sc3cc(C)ccc3c2N)cc(OC)c1OC
- IC50 (CCRF-CEM): 0.024 µM
- IC50 (MOLT-4): 0.034 µM
- IC50 (FM3A): 0.071 µM
- inhibition [1]: 88%
- IC50 [2]: 1.3 µM
- IC50 (L1210): 0.058 µM
- inhibition [3]: 77%

SMILES: COc1cc(C(=O)c2oc3ccccc3c2N)cc(OC)c1OC
- IC50 (CCRF-CEM): > 10 µM
- IC50 (MOLT-4): > 10 µM
- IC50 (FM3A): > 10 µM
- IC50 (L1210): > 10 µM

SMILES: COc1cc(C(=O)c2sc3ccccc3c2N)cc(OC)c1OC
- IC50 (CCRF-CEM): 0.31 µM
- IC50 (MOLT-4): 0.29 µM
- IC50 (FM3A): 1.8 µM
- inhibition [1]: 39%
- IC50 [2]: 4.2 µM
- IC50 (L1210): 0.35 µM

SMILES: COc1cc(C(=O)c2c(N)sc3c2CCCC3)cc(OC)c1OC
- IC50 (CCRF-CEM): 2.15 µM
- IC50 (MOLT-4): 1.58 µM
- IC50 (FM3A): 5.68 µM
- inhibition [1]: 3%
- IC50 [2]: > 40 µM
- IC50 (L1210): 2.24 µM

SMILES: COc1cc(C(=O)c2c(N)sc3ccccc23)cc(OC)c1OC
- IC50 (MOLT-4): 0.073 µM
- inhibition [1]: 57%
- IC50 [2]: 3.1 µM

SMILES: COc1cc(C(=O)c2[nH]c3ccccc3c2N)cc(OC)c1OC
- IC50 (CCRF-CEM): > 10 µM
- IC50 (MOLT-4): > 10 µM
- IC50 (FM3A): > 10 µM
- IC50 (L1210): > 10 µM

SMILES: COc1ccc(C(=O)c2c(N)sc3ccccc23)cc1OC
- IC50 (CCRF-CEM): 1.7 µM
- IC50 (MOLT-4): 1.7 µM
- IC50 (FM3A): 4.7 µM
- IC50 (L1210): 3.7 µM
